This is an account of results in patent US8779140B2, “Crystal of fused pyridine compound salt” (Astellas Pharma Inc., priority 2010, dated 2014).

Data set [1] can be described thus: Solubility test in 84% aqueous EtOH solution. In kind it is physicochemical. On the procedure: After stirring, the supernatant was filtered and the concentration of the filtrate was quantified by means of HPLC.
HPLC; Columns to be charged: Unison UK Phenyl (manufactured by Imtakt Corporation), particle diameter 3 μm, 4.6 mm×250 mm
Mobile phase: perchlorate buffer at pH 2.5 (0.01 mol/L)^(note)/mixed solution with MeCN for LC (4:1),
Flow rate of mobile phase: about 1.0 mL/min. Detector: ultraviolet absorptiometer (wavelength for measurement: 235 nm), column temperature: 50° C. (column thermostat vessel was used)

Data set [2] in a line: Stability test of crystals (storage at 70° C., 70° C./75% RH, Xe lamp; HPLC related substances and powder X-ray diffraction). The conditions noted are these: for Physical stability / change in the crystal forms: stored at 70° C. or 70° C.·75% RH for 2 weeks.
Method: A sample was stored with light-shielding under the condition of 70° C., 70° C.·75% RH for 2 weeks. The total amount of the related substance after storage was measured using HPLC, and the change in crystal forms was measured by means of powder X-ray diffraction.
The test drug was stored under the following conditions.
Initial (Stored under the cooling conditions): About 5 mg was collected with a 10 mL centrifuge tube and stored in a refrigerator.
70° C. (stored at 70° C.): About 5 mg was collected with a 10 mL centrifuge tube and stored in a mini-jet oven at 70° C. for 14 days.
70° C.·75% RH (stored at 70° C. and 75% relative humidity): About 5 mg was collected with a 10 mL centrifuge tube, a sample was put into a desiccator at 75% relative humidity in the open state, and the desiccator was stored in a mini jet oven at 70° C. for 14 days.
Xe lamp: This product was placed in a plastic Petri dish and stored for 40 hours under a Xe lamp (25° C. RH 60%, total irradiance 1,200,000 lx·h, total near-ultraviolet radiation energy 200 W·h/m^2 or more).
Initial, a product stored at 70° C. and a product stored at 70° C. and 75% RH were dissolved in a mixed solution (1:1) of MeCN for LC/water to exactly 10 mL, which was used as a sample solution.
HPLC; Detector: ultraviolet absorptiometer (wavelength measurement; 254 nm), column: Inertsil ODS-3 (particle diameter 3 μm, 2.1 mm×100 mm), column temperature: 40° C. (column thermostat vessel was used), mobile phase: Liquid A—1000 mL of water was added to perchlorate buffer at pH 2.5 {sodium perchlorate (NaClO4.H2O) (1.40 g) for dissolution, and adjusted to a pH of 2.5 with diluted perchloric acid (dilution of 100 mL of a commercially available 60% perchloric acid solution with 1900 mL of water)}. Liquid B—MeCN for LC, flow rate: 0.2 mL/min, Injection amount: 1 μL, (gradient setting: Liquid B 10% at 0.0 minutes to Liquid B 90% at 35 minutes).
Powder X-ray diffraction; tube: Cu, tube current: 300 mA, tube voltage, 50 kV, sampling width: 0.02°, scan speed: 4°/min, wavelength: 1.54056 angstroms, measured diffraction angle range (2θ): 2.5 to 40°
For data set [3], the target named is T1, JAK3 (Homo sapiens, UniProt P52333).
T1 sequence (P52333 1-1124): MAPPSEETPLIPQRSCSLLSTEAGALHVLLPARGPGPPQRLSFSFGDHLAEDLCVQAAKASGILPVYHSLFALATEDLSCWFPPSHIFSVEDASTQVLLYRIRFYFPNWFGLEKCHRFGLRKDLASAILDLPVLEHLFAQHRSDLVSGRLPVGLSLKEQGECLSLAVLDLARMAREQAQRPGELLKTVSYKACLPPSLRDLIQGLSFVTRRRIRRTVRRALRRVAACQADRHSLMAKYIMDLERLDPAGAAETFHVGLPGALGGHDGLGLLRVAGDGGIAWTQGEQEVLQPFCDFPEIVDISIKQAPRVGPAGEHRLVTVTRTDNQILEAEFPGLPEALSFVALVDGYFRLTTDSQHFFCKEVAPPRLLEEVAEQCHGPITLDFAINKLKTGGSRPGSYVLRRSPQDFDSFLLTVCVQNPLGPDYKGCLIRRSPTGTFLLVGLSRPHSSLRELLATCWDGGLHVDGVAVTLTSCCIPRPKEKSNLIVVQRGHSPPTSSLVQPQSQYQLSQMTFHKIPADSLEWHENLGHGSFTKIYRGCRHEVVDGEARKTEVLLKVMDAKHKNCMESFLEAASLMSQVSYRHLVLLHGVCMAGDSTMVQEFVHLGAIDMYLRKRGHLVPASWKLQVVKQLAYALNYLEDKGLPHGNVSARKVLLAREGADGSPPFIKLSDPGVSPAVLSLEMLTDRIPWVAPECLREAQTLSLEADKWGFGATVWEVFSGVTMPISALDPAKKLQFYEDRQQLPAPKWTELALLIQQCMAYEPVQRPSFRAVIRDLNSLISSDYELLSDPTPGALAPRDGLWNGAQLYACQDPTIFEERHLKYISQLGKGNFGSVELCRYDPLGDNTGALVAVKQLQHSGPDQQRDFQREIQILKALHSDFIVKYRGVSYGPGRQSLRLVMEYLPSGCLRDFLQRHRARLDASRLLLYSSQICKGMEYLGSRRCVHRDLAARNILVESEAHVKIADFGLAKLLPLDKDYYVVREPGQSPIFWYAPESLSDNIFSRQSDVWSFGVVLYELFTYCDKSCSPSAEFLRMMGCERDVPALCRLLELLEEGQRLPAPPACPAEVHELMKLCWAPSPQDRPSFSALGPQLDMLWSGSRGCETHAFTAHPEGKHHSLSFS
The conditions noted are these: as described in Patent Document 1; cited from earlier work.

The conditions of data set [4]: stirred at room temperature in a 84% EtOH solution.
From the text: The Form A61 crystals were stirred at room temperature and transition of crystal forms was attempted in a 84% EtOH solution.
[5] abbreviates: 70° C. 75% RH, 2 weeks, Table 1.
[6] abbreviates: Initial (stored in a refrigerator), Table 1.
The mark [7] stands for this setting: 70° C. 75% RH, 2 weeks, Table 1, hydrobromide.
The mark [8] stands for this setting: 70° C., 2 weeks, Table 1, hydrobromide.
Setting [9] is: Initial (stored in a refrigerator), Table 1, hydrobromide.
The mark [10] stands for this setting: Xe lump 40H, Table 1, hydrobromide.

Take `Br.NC(=O)c1cnc2[nH]ccc2c1N[C@@H]1[C@@H]2C[C@@H]3C[C@H]1C[C@@](O)(C3)C2.O.O` [Form B21, 4-{[(1R,2s,3S,5s,7s)-5-hydroxy-2-adamantyl]amino}-1H-pyrrolo[2,3-b]pyridine-5-carboxamide hydrobromide dihydrate]: the Solubility in data set [1] (25° C.) amounted to 36.1 mg/mL; in data set [1] (35° C.), 46.3 mg/mL; in data set [1] (50° C.), 58.2 mg/mL. In addition, the “LC: total amount of the related substances” value (from here on “LC: total amount”) in data set [2] (setting [5]) is given as 0.05%; in data set [2] (70° C., 2 weeks, Table 1), 0.05%; in data set [2] (setting [6]), 0.00%; in data set [2] (Xe lump 40H, Table 1), 0.05%.

With `Br.NC(=O)c1cnc2[nH]ccc2c1N[C@@H]1[C@@H]2C[C@@H]3C[C@H]1C[C@@](O)(C3)C2.O` [Form B11, 4-{[(1R,2s,3S,5s,7s)-5-hydroxy-2-adamantyl]amino}-1H-pyrrolo[2,3-b]pyridine-5-carboxamide hydrobromide monohydrate], the Solubility in data set [1] (25° C.) came out at 35.0 mg/mL; in data set [1] (35° C.), 44.1 mg/mL; in data set [1] (50° C.), 60.1 mg/mL. The “LC: total amount” value in data set [2] (setting [5]) stood at 0.43%; in data set [2] (70° C., 2 weeks, Table 1) it was 0.43%; in data set [2] (setting [6]) it was 0.43%; in data set [2] (Xe lump 40H, Table 1), 0.48%.

For `Br.NC(=O)c1cnc2[nH]ccc2c1N[C@@H]1[C@@H]2C[C@@H]3C[C@H]1C[C@@](O)(C3)C2` [Form A36, 4-{[(1R,2s,3S,5s,7s)-5-hydroxy-2-adamantyl]amino}-1H-pyrrolo[2,3-b]pyridine-5-carboxamide monohydrobromide], the “LC: total amount” value in data set [2] (70° C. 75% RH, 2 weeks, Table 1, monohydrobromide) came out at 0.28%; in data set [2] (70° C., 2 weeks, Table 1, monohydrobromide) it was 0.34%; in data set [2] (Initial (stored in a refrigerator), Table 1, monohydrobromide) it was 0.43%; in data set [2] (Xe lump 40H, Table 1, monohydrobromide) it was 0.76%.

`Cl.NC(=O)c1cnc2[nH]ccc2c1N[C@@H]1[C@@H]2C[C@@H]3C[C@H]1C[C@@](O)(C3)C2.O` [Form A34, 4-{[(1R,2s,3S,5s,7s)-5-hydroxy-2-adamantyl]amino}-1H-pyrrolo[2,3-b]pyridine-5-carboxamide monohydrochloride hydrate]: the “LC: total amount” value is listed as 0.10% in data set [2] (70° C. 2 W, Table 3); 0.10% in data set [2] (70° C. 75% RH 2 W, Table 3); 0.10% in data set [2] (Initial, Table 3); 0.30% in data set [2] (Xe lump 40H, Table 3).

In the case of `NC(=O)c1cnc2[nH]ccc2c1N[C@@H]1[C@@H]2CC3C[C@H]1C[C@@](O)(C3)C2` [anhydride in a free form, reference compound], the “Change of crystal on storage” value in data set [2] (with humidity at 70° C.) was “changed to hydrate”.

In the case of `NC(=O)c1cnc2[nH]ccc2c1N[C@@H]1[C@@H]2CC3C[C@H]1C[C@@](O)(C3)C2` [Ex. 121, 4-{[(1R,2s,3S,5s,7s)-5-hydroxy-2-adamantyl]amino}-1H-pyrrolo[2,3-b]pyridine-5-carboxamide], the JAK3 inhibitory activity result in data set [3] was “excellent activity”. Moreover, the “Stability with respect to temperature and humidity” value in data set [2] (crystallized free form) was “not stable with respect to temperature and humidity even when crystallized”.

Turning to `Br.NC(=O)c1cnc2[nH]ccc2c1N[C@@H]1[C@@H]2C[C@@H]3C[C@H]1C[C@@](O)(C3)C2` [hydrobromide, 4-{[(1R,2s,3S,5s,7s)-5-hydroxy-2-adamantyl]amino}-1H-pyrrolo[2,3-b]pyridine-5-carboxamide hydrobromide], in data set [2], the “Storage stability in a solid state” value is given as “excellent storage stability in a solid state”.

For the molecule `Br.NC(=O)c1cnc2[nH]ccc2c1N[C@@H]1[C@@H]2C[C@@H]3C[C@H]1C[C@@](O)(C3)C2` [Form B45, 4-{[(1R,2s,3S,5s,7s)-5-hydroxy-2-adamantyl]amino}-1H-pyrrolo[2,3-b]pyridine-5-carboxamide hydrobromide], the “Solubility rank among crystal forms” value in data set [1] is listed as “lowest solubility crystal form”. For the same molecule, the Solubility in data set [1] (25° C., hydrobromide) worked out at 23.7 mg/mL; in data set [1] (35° C., hydrobromide) it was 29.4 mg/mL; in data set [1] (50° C., hydrobromide), 36.7 mg/mL. Moreover, the “LC: total amount” value in data set [2] (setting [7]), in data set [2] (setting [8]), in data set [2] (setting [9]) and in data set [2] (setting [10]) was 0.11% throughout. Also, the “Physical stability / change in the crystal forms” value (shortened to “Physical stability / change”) in data set [2] is given as “physically stable”.

For the molecule `Br.NC(=O)c1cnc2[nH]ccc2c1N[C@@H]1[C@@H]2C[C@@H]3C[C@H]1C[C@@](O)(C3)C2` [Form A87, 4-{[(1R,2s,3S,5s,7s)-5-hydroxy-2-adamantyl]amino}-1H-pyrrolo[2,3-b]pyridine-5-carboxamide hydrobromide], the Solubility was 36.8 mg/mL in data set [1] (25° C., hydrobromide); 46.0 mg/mL in data set [1] (35° C., hydrobromide); 48.9 mg/mL in data set [1] (50° C., hydrobromide). Further, the “LC: total amount” value worked out at 1.51% in data set [2] (setting [7]), 1.64% in data set [2] (setting [8]), 1.60% in data set [2] (setting [9]) and 1.32% in data set [2] (setting [10]). For the same molecule, the “Physical stability / change” value in data set [2] is given as “physically stable”.

Regarding `Cl.NC(=O)c1cnc2[nH]ccc2c1N[C@@H]1[C@@H]2C[C@@H]3C[C@H]1C[C@@](O)(C3)C2` [Form A33, 4-{[(1R,2s,3S,5s,7s)-5-hydroxy-2-adamantyl]amino}-1H-pyrrolo[2,3-b]pyridine-5-carboxamide monohydrochloride], the “LC: total amount” value amounted to 0.48% in data set [2] (70° C. 2 W, Table 3); 0.48% in data set [2] (70° C. 75% RH 2 W, Table 3); 0.49% in data set [2] (Initial, Table 3); 0.79% in data set [2] (Xe lump 40H, Table 3).

Consider `NC(=O)c1cnc2[nH]ccc2c1N[C@@H]1[C@@H]2C[C@@H]3C[C@H]1C[C@@](O)(C3)C2.O=C(O)CCC(=O)O` [Form A24, 4-{[(1R,2s,3S,5s,7s)-5-hydroxy-2-adamantyl]amino}-1H-pyrrolo[2,3-b]pyridine-5-carboxamide succinate], for which the “LC: total amount” value in data set [2] (70° C. 2 W, Table 3) stood at 0.19%; in data set [2] (70° C. 75% RH 2 W, Table 3) it was 0.25%; in data set [2] (Initial, Table 3), 0.25%; in data set [2] (Xe lump 40H, Table 3) it was 0.19%.

With `Br.NC(=O)c1cnc2[nH]ccc2c1N[C@@H]1[C@@H]2C[C@@H]3C[C@H]1C[C@@](O)(C3)C2` [Form A61, 4-{[(1R,2s,3S,5s,7s)-5-hydroxy-2-adamantyl]amino}-1H-pyrrolo[2,3-b]pyridine-5-carboxamide hydrobromide], in data set [4], the “Transition of crystal form” value is “underwent transition to a Form B45 after 4 hours”. Moreover, the Solubility in data set [1] (25° C., hydrobromide) is 37.2 mg/mL; in data set [1] (35° C., hydrobromide), 45.5 mg/mL; in data set [1] (50° C., hydrobromide), 53.8 mg/mL. In addition, the “LC: total amount” value amounted to 0.43% in data set [2] (setting [7]), 0.44% in data set [2] (setting [8]), 0.44% in data set [2] (setting [9]) and 0.77% in data set [2] (setting [10]). The “Physical stability / change” value in data set [2] is recorded as “physically stable”.

Usually Solubility stands for how much of the substance goes into solution per volume. Read a low Solubility as a poorly soluble substance.
